Two compounds from US4180578A, “2,4-Diamino-5-(4'-methylthio)benzylpyrimidenes, compounds, compositions and method of use” (Ludwig Heumann, & Co. GmbH, priority 1977, dated 1979) can be followed below.

Structures are written as SMILES. Values after ≈ are worked out from the molar mass of the structure shown. Some results are limits rather than exact numbers.

A word on the MIC: it is the lowest concentration found to suppress growth. Broadly, the LD50 is the dose at which mortality reaches 50%. High values mean lower toxicity, low ones greater toxicity.

A short description of data set [1]: Serum level, rat. Type of data set: in vivo. The following applies: po, 50 mg/kg i.g. Here is the method: |Serum level, rat (50 mg/kg i.g.)
The subject of data set [2] is Enterococcus. The data set is described as follows: MIC, serial dilution test, DST-Agar. Type of data set: cell-based. The following applies: n = 2, DST-Agar, read-out: Geometrical mean value of MIC. An excerpt:
(§1) MIC values in μg/ml (serial dilution test, DST-Agar)
(§2) Geometrical mean value of MIC in μg/ml

Data set [3] has as its system Proteus. Briefly: MIC, serial dilution test, DST-Agar. Type of data set: cell-based. The following applies: n = 3, DST-Agar, read-out: Geometrical mean value of MIC.
Description: as §1, §2

Data set [4] has as its system E. Coli. Briefly: MIC, serial dilution test, DST-Agar. The following applies: Escherichia coli, n = 15, DST-Agar, read-out: Geometrical mean value of MIC. It counts as cell-based.
Description: as §1, §2

Data set [5] concerns Klebsiellae. The data set is described as follows: MIC, serial dilution test, DST-Agar. Type of data set: cell-based. The following applies: n = 3, DST-Agar, read-out: Geometrical mean value of MIC.
Description: as §1, §2

A short description of data set [6]: in vivo. The following applies: po, mouse, intragastral, safety limits p = 0.05 printed for TMP: lower 2105.5, upper 3629.8. The source says: 2,4-diamino-5-(3',5'-dimethoxy-4'-S-methyl)-
benzylpyrimidine (mouse, intragastral administration) (determined
according to J.T. Litchfield and F. Wilcoxon in "J. Pharmacol.

The compound `COc1cc(Cc2cnc(N)nc2N)cc(OC)c1SC` [2,4-diamino-5-(3',5-dimethoxy-4'-methylthio)-benzylpyrimidine] registered a concentration at 0.5 h in data set [1] of 5000 ng/mL. Besides, the concentration at 1 h in data set [1] turned out to be 2700 ng/mL. Besides, the MIC stood at 0.156 µg/mL (≈ 0.509 µM) in data set [2], 0.992 µg/mL (≈ 3.24 µM) in data set [3], 0.142 µg/mL (≈ 0.463 µM) in data set [4] and 0.248 µg/mL (≈ 0.809 µM) in data set [5]. The same compound showed a 50% lethal dose (LD50) in data set [6] of more than 5000 mg/kg.
As for `COc1cc(Cc2cnc(N)nc2N)cc(OC)c1OC` [TMP, 2,4-diamino-5-(3'4',5'-trimethoxybenzyl)-pyrimidine], the concentration at 0.5 h in data set [1] turned out to be 4500 ng/mL. In data set [1], the concentration at 1 h was determined as 3300 ng/mL. The MIC in data set [2] is 0.078 µg/mL (≈ 0.269 µM); in data set [3], 0.625 µg/mL (≈ 2.15 µM); in data set [4] it was 0.108 µg/mL (≈ 0.372 µM); in data set [5] it was 0.496 µg/mL (≈ 1.71 µM). The LD50 in data set [6] amounted to 2760 mg/kg.
